What was measured:
JAK3 = target: T1, JAK3 (Homo sapiens, UniProt P52333); test: Z'-LYTE kinase assay JAK3; assay type: biochemical
T1 construct: 5 μl of catalytic domain recombinant Kinase enzyme+Tyr peptide substrate (Invitrogen, CA); purchased Invitrogen
Outline: (§1)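 Read-out is FRET fluorescence between coumarin and fluorescein on a Tyr6 peptide, lost when the development protease cleaves unphosphorylated substrate. Kinase reaction used recombinant catalytic domain with ATP, 1 h at room temperature, 1% DMSO.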

JAK1 = target: T2, JAK1 (Homo sapiens, UniProt P23458); test: Z'-LYTE kinase assay JAK1; assay type: biochemical
T2 construct: 5 μl of catalytic domain recombinant Kinase enzyme+Tyr peptide substrate (Invitrogen, CA); purchased Invitrogen
T2 sequence (P23458 875-1153 limits assumed): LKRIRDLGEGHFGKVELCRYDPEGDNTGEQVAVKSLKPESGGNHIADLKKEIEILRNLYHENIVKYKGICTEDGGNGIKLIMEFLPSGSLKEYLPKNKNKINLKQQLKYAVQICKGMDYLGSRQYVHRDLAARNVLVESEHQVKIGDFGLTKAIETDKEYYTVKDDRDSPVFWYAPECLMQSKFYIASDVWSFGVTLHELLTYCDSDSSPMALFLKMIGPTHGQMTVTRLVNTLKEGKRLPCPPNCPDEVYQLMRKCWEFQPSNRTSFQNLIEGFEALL
Outline: as §1

[1] = system: JAK1/3 signaling to STAT6 in Ramos B cells; test: IL4 stimulation of JAK1/3 signaling to STAT6 in Ramos B cells (pSTAT6 Y641, FACS); assay type: cell-based; conditions: Homo sapiens; for inhibition at 0.2 µM: 0.2 uM compound, read-out: IL-4/STAT6 in Ramos Percent Inhibition at 0.2 uM; for inhibition at 1 µM: 1.0 uM compound, read-out: IL-4/STAT6 in Ramos Percent Inhibition at 1.0 uM
Outline: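 Ramos cells in 10% FCS medium were pre-treated 1 h with compound, stimulated 15 min with 15 ng IL4, fixed in 2% paraformaldehyde and methanol-permeabilized. Intracellular phospho-STAT6 Y641 was stained with PE-conjugated antibody and quantified by flow cytometry.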

JAK2 = target: T3, JAK2 (Homo sapiens, UniProt O60674); test: Z'-LYTE kinase assay JAK2; assay type: biochemical
T3 construct: 5 μl of catalytic domain recombinant Kinase enzyme+Tyr peptide substrate (Invitrogen, CA); purchased Invitrogen
T3 sequence (O60674 849-1124 limits assumed): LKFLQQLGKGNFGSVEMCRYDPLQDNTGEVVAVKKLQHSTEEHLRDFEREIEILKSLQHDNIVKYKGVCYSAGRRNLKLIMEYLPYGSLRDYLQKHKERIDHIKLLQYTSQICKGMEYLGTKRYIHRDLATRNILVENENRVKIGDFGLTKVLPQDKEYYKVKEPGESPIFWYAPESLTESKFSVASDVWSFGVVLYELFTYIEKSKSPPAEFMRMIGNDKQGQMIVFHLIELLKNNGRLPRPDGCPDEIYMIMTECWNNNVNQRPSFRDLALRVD
Outline: as §1

T1 sequence (P52333 822-1111 limits assumed): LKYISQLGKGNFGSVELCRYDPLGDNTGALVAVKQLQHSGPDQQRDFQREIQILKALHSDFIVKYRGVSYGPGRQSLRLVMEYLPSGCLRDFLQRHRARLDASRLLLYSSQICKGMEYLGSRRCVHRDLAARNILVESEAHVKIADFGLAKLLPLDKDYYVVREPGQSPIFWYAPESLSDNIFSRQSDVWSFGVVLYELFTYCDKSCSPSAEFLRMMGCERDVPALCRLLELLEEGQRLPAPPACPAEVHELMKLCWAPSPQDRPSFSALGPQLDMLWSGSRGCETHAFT

IC50 (JAK3) | IC50 (JAK1) | IC50 (JAK2) | SMILES | inhibition at 0.2 µM [1] | inhibition at 1 µM [1]
0.01 to 0.1 µM | 0.1 to 1 µM | 0.1 to 1 µM | CC(=O)N1CCN(c2ccc(Nc3cc(NC4CC4)c(C(N)=O)cn3)cc2)CC1 [Example 2] | 29% | 77%
0.001 to 0.01 µM | 0.1 to 1 µM | 0.01 to 0.1 µM | CC(=O)N1CCN(c2ccc(Nc3cc(NCc4cccc(F)c4)c(C(N)=O)cn3)cc2)CC1 [Example 229] | 38% | 67%
